Test results as given in ChEMBL document CHEMBL1152405, “Bis-anthracenyl isoxazolyl amides have enhanced anticancer activity” (Bioorg Med Chem Lett, 2009).

What was measured:
Format in all cases: functional
[1] = test system: SW-620; test: Growth inhibition of human SW620 cells after 24 hrs by MTT assay; settings: SW-620, 24 h
[2] = test system: Malme-3M; test: Growth inhibition of human MALME-3M cells after 24 hrs by MTT assay
[3] = test system: 786-0; test: Growth inhibition of human 786-0 cells at 10 uM after 24 hrs by MTT assay relative to control; design: scale not given: the % may be the effect or the level left
[4] = test system: SF-539; test: Growth inhibition of human SF539 cells after 24 hrs by MTT assay; settings: SF-539, 24 h
[5] = test system: TK-10; test: Growth inhibition of human TK10 cells at 10 uM after 24 hrs by MTT assay relative to control; design: scale not given: the % may be the effect or the level left
[6] = Growth inhibition of human Hs 578T cells after 24 hrs by MTT assay
[7] = test system: NCI-H322M; test: Growth inhibition of human NCI-H322M cells at 10 uM after 24 hrs by MTT assay relative to control; design: scale not given: the % may be the effect or the level left
[8] = test system: LOX IMVI; test: Growth inhibition of human LOXIMVI cells after 24 hrs by MTT assay
[9] = test system: COLO 205; test: Growth inhibition of human COLO205 cells after 24 hrs by MTT assay; settings: COLO 205, 24 h
[10] = test system: T47D; test: Growth inhibition of human T47D cells at 10 uM after 24 hrs by MTT assay relative to control; design: scale not given: the % may be the effect or the level left
[11] = test system: K562; test: Growth inhibition of human K562 cells after 24 hrs by MTT assay; settings: K562, 24 h
[12] = test system: HT-29; test: Growth inhibition of human HT-29 cells at 10 uM after 24 hrs by MTT assay relative to control; design: scale not given: the % may be the effect or the level left
[13] = test system: SNB-19; test: Growth inhibition of human SNB19 cells after 24 hrs by MTT assay; settings: SNB-19, 24 h
[14] = test system: NCI-H460; test: Growth inhibition of human NCI-H460 cells at 10 uM after 24 hrs by MTT assay relative to control; design: scale not given: the % may be the effect or the level left
[15] = test system: NCI-H226; test: Growth inhibition of human NCI-H226 cells after 24 hrs by MTT assay; settings: NCI-H226, 24 h
[16] = test system: MDA-MB-231; test: Growth inhibition of human MDA-MB-231 cells at 10 uM after 24 hrs by MTT assay relative to control; design: scale not given: the % may be the effect or the level left
[17] = test system: RXF 393; test: Growth inhibition of human RXF393 cells at 10 uM after 24 hrs by MTT assay relative to control; design: scale not given: the % may be the effect or the level left
[18] = test system: U-251; test: Growth inhibition of human U251 cells after 24 hrs by MTT assay; settings: U-251, 24 h
[19] = Growth inhibition of human […] cells at 10 uM after 24 hrs by MTT assay relative to control; design: scale not given: the % may be the effect or the level left
[20] = test system: MDA-MB-435; test: Growth inhibition of human MDA-MB-435 cells at 10 uM after 24 hrs by MTT assay relative to control; design: scale not given: the % may be the effect or the level left
[21] = test system: OVCAR-5; test: Growth inhibition of human OVCAR5 cells after 24 hrs by MTT assay; settings: OVCAR-5, 24 h
[22] = test system: HL-60(TB); test: Growth inhibition of human HL-60(TB) cells after 24 hrs by MTT assay; settings: HL-60, 24 h
[23] = test system: HCC 2998; test: Growth inhibition of human HCC2998 cells after 24 hrs by MTT assay; settings: HCC 2998, 24 h
[24] = test system: T47D; test: Growth inhibition of human T47D cells after 24 hrs by MTT assay
[25] = test system: NCI-H23; test: Growth inhibition of human NCI-H23 cells after 24 hrs by MTT assay; settings: NCI-H23, 24 h
[26] = test system: MDA-MB-231; test: Growth inhibition of human MDA-MB-231 cells after 24 hrs by MTT assay; settings: MDA-MB-231, 24 h
[27] = test system: SF-268; test: Growth inhibition of human SF268 cells at 10 uM after 24 hrs by MTT assay relative to control; design: scale not given: the % may be the effect or the level left
[28] = test system: NCI-H522; test: Growth inhibition of human NCI-H522 cells at 10 uM after 24 hrs by MTT assay relative to control; design: scale not given: the % may be the effect or the level left
[29] = test system: SK-MEL-2; test: Growth inhibition of human SK-MEL-2 cells after 24 hrs by MTT assay; settings: SK-MEL-2, 24 h
[30] = test system: HT-29; test: Growth inhibition of human HT-29 cells after 24 hrs by MTT assay; settings: HT-29, 24 h
[31] = test system: NCI-H522; test: Growth inhibition of human NCI-H522 cells after 24 hrs by MTT assay; settings: NCI-H522, 24 h
[32] = test system: UACC-62; test: Growth inhibition of human UACC62 cells after 24 hrs by MTT assay; settings: UACC-62, 24 h
[33] = test system: K562; test: Growth inhibition of human K562 cells at 10 uM after 24 hrs by MTT assay relative to control; design: scale not given: the % may be the effect or the level left
[34] = read-out: LC50 (the source's name)
[35] = read-out: pLC50 (the source's name) (converted)

Cc1onc(-c2c3ccccc3c(Cl)c3ccccc23)c1C(=O)Nc1cc(C(=O)NCCCN(C)CCCNC(=O)c2cc(NC(=O)c3c(-c4c5ccccc5c(Cl)c5ccccc45)noc3C)cn2C)n(C)c1
TGI [1]: 2750 nM
GI50 ([1]; read-out: GI50): 1440 nM
CC50 [1, 34]: 5.24 µM
GI50 ([1]; read-out: pGI50 (converted)): 1450 nM
CC50 [1, 35]: 5.25 µM
TGI [2]: 4.27 µM
GI50 ([2]; read-out: GI50): 1930 nM
GI50 ([2]; read-out: pGI50 (converted)): 1950 nM
Activity [3]: -81.64%
TGI [4]: 2720 nM
GI50 ([4]; read-out: GI50): 1420 nM
CC50 [4, 34]: 5.22 µM
GI50 ([4]; read-out: pGI50 (converted)): 1410 nM
CC50 [4, 35]: 5.25 µM
Activity [5]: -89.17%
TGI [6]: 2940 nM
GI50 ([6]; read-out: GI50): 1150 nM
GI50 ([6]; read-out: pGI50 (converted)): 1150 nM
Activity [7]: -97.3%
TGI [8]: 2960 nM
GI50 ([8]; read-out: GI50): 1380 nM
GI50 ([8]; read-out: pGI50 (converted)): 1380 nM
TGI [9]: 2480 nM
GI50 ([9]; read-out: GI50): 1240 nM
CC50 [9, 34]: 4.98 µM
GI50 ([9]; read-out: pGI50 (converted)): 1230 nM
CC50 [9, 35]: 5.01 µM
Activity [10]: -81.41%
TGI [11]: 2190 nM
GI50 ([11]; read-out: GI50): 822 nM
CC50 [11, 34]: 5.14 µM
GI50 ([11]; read-out: pGI50 (converted)): 813 nM
CC50 [11, 35]: 5.13 µM
Activity [12]: -91.6%
TGI [13]: 3.5 µM
GI50 ([13]; read-out: GI50): 1560 nM
CC50 [13, 34]: 7.86 µM
GI50 ([13]; read-out: pGI50 (converted)): 1550 nM
CC50 [13, 35]: 7.94 µM
Activity [14]: -100%
TGI [15]: 29.4 µM
GI50 ([15]; read-out: GI50): 3.15 µM
CC50 [15, 34]: 100 µM
GI50 ([15]; read-out: pGI50 (converted)): 3.16 µM
CC50 [15, 35]: > 100 µM
Activity [16]: -100%
Activity [17]: -61.83%
GI50 ([18]; read-out: GI50): 1500 nM
GI50 ([18]; read-out: pGI50 (converted)): 1510 nM
Activity [19]: -100%
Activity [20]: -100%
TGI [21]: 2780 nM
GI50 ([21]; read-out: GI50): 1470 nM
CC50 [21, 34]: 5.27 µM
GI50 ([21]; read-out: pGI50 (converted)): 1480 nM
CC50 [21, 35]: 5.25 µM
TGI [22]: 8.3 µM
GI50 ([22]; read-out: GI50): 1610 nM
CC50 [22, 34]: 42 µM
GI50 ([22]; read-out: pGI50 (converted)): 1620 nM
CC50 [22, 35]: 41.7 µM
TGI [23]: 2940 nM
GI50 ([23]; read-out: GI50): 1590 nM
CC50 [23, 34]: 5.42 µM
GI50 ([23]; read-out: pGI50 (converted)): 1580 nM
CC50 [23, 35]: 5.37 µM
TGI [24]: 5.08 µM
GI50 ([24]; read-out: GI50): 1690 nM
CC50 [24, 34]: 24.5 µM
GI50 ([24]; read-out: pGI50 (converted)): 1700 nM
CC50 [24, 35]: 24.5 µM
TGI [25]: 3.01 µM
GI50 ([25]; read-out: GI50): 1540 nM
CC50 [25, 34]: 5.85 µM
GI50 ([25]; read-out: pGI50 (converted)): 1550 nM
CC50 [25, 35]: 5.89 µM
TGI [26]: 2760 nM
GI50 ([26]; read-out: GI50): 1370 nM
GI50 ([26]; read-out: pGI50 (converted)): 1380 nM
Activity [27]: -100%
Activity [28]: -85.33%
TGI [29]: 4.1 µM
GI50 ([29]; read-out: GI50): 2080 nM
GI50 ([29]; read-out: pGI50 (converted)): 2090 nM
TGI [30]: 2470 nM
GI50 ([30]; read-out: GI50): 1200 nM
GI50 ([30]; read-out: pGI50 (converted)): 1200 nM
TGI [31]: 3.51 µM
GI50 ([31]; read-out: GI50): 1590 nM
GI50 ([31]; read-out: pGI50 (converted)): 1580 nM
TGI [32]: 3.44 µM
GI50 ([32]; read-out: GI50): 1700 nM
GI50 ([32]; read-out: pGI50 (converted)): 1700 nM
Activity [33]: -100%
